Assay results reported in PubChem BioAssay (NCI).
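Values below derive from 48-hour exposures of cells grown in 96-well plates, with endpoints linearly interpolated between the two concentrations bracketing the appropriate inhibition level. GI50 marks 50% less growth. TGI: concentration producing complete growth inhibition.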

Experiments:
Test in all cases: NCI anticancer screen, dose series, 48 h
UACC-62 melanoma = test system: UACC-62 melanoma
SNB-75 CNS = test system: SNB-75 CNS
MALME-3M melanoma = test system: MALME-3M melanoma
SNB-19 CNS = test system: SNB-19 CNS
OVCAR-4 ovarian = test system: OVCAR-4 ovarian
OVCAR-3 ovarian = test system: OVCAR-3 ovarian
PC-3 prostate = test system: PC-3 prostate
M14 melanoma = test system: M14 melanoma
NCI-H23 lung = test system: NCI-H23 lung
OVCAR-5 ovarian = test system: OVCAR-5 ovarian
NCI/ADR-RES ovarian = test system: NCI/ADR-RES ovarian
COLO 205 colon = test system: COLO 205 colon
HOP-62 NSCLC = test system: HOP-62 NSCLC
SF-295 CNS = test system: SF-295 CNS
K-562 leukemia = test system: K-562 leukemia
SN12C renal = test system: SN12C renal
HT29 colon = test system: HT29 colon
MDA-MB-435 = test system: MDA-MB-435
MCF7 breast = test system: MCF7 breast
OVCAR-8 ovarian = test system: OVCAR-8 ovarian
SF-539 CNS = test system: SF-539 CNS
HS 578T breast = test system: HS 578T breast
ACHN renal = test system: ACHN renal
RPMI-8226 leukemia = test system: RPMI-8226 leukemia
EKVX NSCLC = test system: EKVX NSCLC
CCRF-CEM leukemia = test system: CCRF-CEM leukemia
TK-10 renal = test system: TK-10 renal
HCT-15 colon = test system: HCT-15 colon
DU-145 prostate = test system: DU-145 prostate
NCI-H522 lung = test system: NCI-H522 lung
LOX IMVI melanoma = test system: LOX IMVI melanoma
A549 NSCLC = test system: A549 NSCLC
786-0 renal = test system: 786-0 renal
UACC-257 melanoma = test system: UACC-257 melanoma
T-47D breast = test system: T-47D breast
SR leukemia = test system: SR leukemia
A498 renal = test system: A498 renal
SK-MEL-28 melanoma = test system: SK-MEL-28 melanoma
SK-MEL-5 melanoma = test system: SK-MEL-5 melanoma
HL-60(TB) leukemia = test system: HL-60(TB) leukemia
NCI-H460 lung = test system: NCI-H460 lung
NCI-H226 lung = test system: NCI-H226 lung
SK-MEL-2 melanoma = test system: SK-MEL-2 melanoma
HCT-116 colon = test system: HCT-116 colon
UO-31 renal = test system: UO-31 renal
KM12 colon = test system: KM12 colon
HOP-92 NSCLC = test system: HOP-92 NSCLC
SW-620 colon = test system: SW-620 colon
BT-549 breast = test system: BT-549 breast
SF-268 CNS = test system: SF-268 CNS
CAKI-1 renal = test system: CAKI-1 renal
IGROV1 ovarian = test system: IGROV1 ovarian
SK-OV-3 ovarian = test system: SK-OV-3 ovarian
MDA-MB-231 breast = test system: MDA-MB-231 breast
MOLT-4 leukemia = test system: MOLT-4 leukemia
HCC-2998 colon = test system: HCC-2998 colon
U251 CNS = test system: U251 CNS
RXF 393 renal = test system: RXF 393 renal

N#C/C(=C\c1c(-c2ccccc2)[nH]c2ccccc12)S(=O)(=O)c1ccccc1
GI50 (UACC-62 melanoma): 2.38 µM
TGI (UACC-62 melanoma): 24.9 µM
GI50 (SNB-75 CNS): 1.67 µM
TGI (SNB-75 CNS): 29.4 µM
GI50 (MALME-3M melanoma): 6.77 µM
TGI (MALME-3M melanoma): > 55.8 µM
GI50 (SNB-19 CNS): 7.08 µM
TGI (SNB-19 CNS): > 88.2 µM
GI50 (OVCAR-4 ovarian): 5.47 µM
TGI (OVCAR-4 ovarian): > 100 µM
GI50 (OVCAR-3 ovarian): 1.14 µM
TGI (OVCAR-3 ovarian): 4.41 µM
GI50 (PC-3 prostate): 3.34 µM
TGI (PC-3 prostate): > 53.9 µM
GI50 (M14 melanoma): 2.66 µM
TGI (M14 melanoma): 38.2 µM
GI50 (NCI-H23 lung): 4.26 µM
TGI (NCI-H23 lung): > 58.5 µM
GI50 (OVCAR-5 ovarian): 18.2 µM
TGI (OVCAR-5 ovarian): 98.1 µM
GI50 (NCI/ADR-RES ovarian): 1.06 µM
TGI (NCI/ADR-RES ovarian): 43.4 µM
GI50 (COLO 205 colon): 1.38 µM
TGI (COLO 205 colon): 17 µM
GI50 (HOP-62 NSCLC): 8.06 µM
TGI (HOP-62 NSCLC): > 100 µM
GI50 (SF-295 CNS): 2.21 µM
TGI (SF-295 CNS): 14.6 µM
GI50 (K-562 leukemia): 0.346 µM
GI50 (SN12C renal): 5.24 µM
TGI (SN12C renal): 71.8 µM
GI50 (HT29 colon): 0.594 µM
TGI (HT29 colon): > 41.5 µM
GI50 (MDA-MB-435): 0.287 µM
TGI (MDA-MB-435): 3.77 µM
GI50 (MCF7 breast): 2.15 µM
TGI (MCF7 breast): 18.4 µM
GI50 (OVCAR-8 ovarian): 5.82 µM
TGI (OVCAR-8 ovarian): > 78 µM
GI50 (SF-539 CNS): 2.48 µM
TGI (SF-539 CNS): 9.51 µM
GI50 (HS 578T breast): 8.76 µM
TGI (HS 578T breast): > 26.8 µM
GI50 (ACHN renal): 6.65 µM
TGI (ACHN renal): 75 µM
GI50 (RPMI-8226 leukemia): 0.557 µM
TGI (RPMI-8226 leukemia): 6.88 µM
GI50 (EKVX NSCLC): 5.49 µM
TGI (EKVX NSCLC): > 64.8 µM
GI50 (CCRF-CEM leukemia): 2.38 µM
TGI (CCRF-CEM leukemia): 18.4 µM
GI50 (TK-10 renal): 5.08 µM
TGI (TK-10 renal): > 54.3 µM
GI50 (HCT-15 colon): 1.07 µM
TGI (HCT-15 colon): 34.6 µM
GI50 (DU-145 prostate): 2.4 µM
TGI (DU-145 prostate): 20.1 µM
GI50 (NCI-H522 lung): 4.51 µM
TGI (NCI-H522 lung): 25.5 µM
GI50 (LOX IMVI melanoma): 4.47 µM
TGI (LOX IMVI melanoma): 25.5 µM
GI50 (A549 NSCLC): 3.74 µM
TGI (A549 NSCLC): > 100 µM
GI50 (786-0 renal): 8.46 µM
TGI (786-0 renal): > 100 µM
GI50 (UACC-257 melanoma): 17.9 µM
TGI (UACC-257 melanoma): 56.2 µM
GI50 (T-47D breast): 3.82 µM
TGI (T-47D breast): 33.8 µM
GI50 (SR leukemia): 17.3 µM
TGI (SR leukemia): > 100 µM
GI50 (A498 renal): 7.6 µM
TGI (A498 renal): > 58.7 µM
GI50 (SK-MEL-28 melanoma): 5.97 µM
TGI (SK-MEL-28 melanoma): 28.8 µM
GI50 (SK-MEL-5 melanoma): 1.82 µM
TGI (SK-MEL-5 melanoma): 11.5 µM
GI50 (HL-60(TB) leukemia): 1.27 µM
TGI (HL-60(TB) leukemia): 5.34 µM
GI50 (NCI-H460 lung): 2.73 µM
TGI (NCI-H460 lung): 18.3 µM
GI50 (NCI-H226 lung): 4.06 µM
TGI (NCI-H226 lung): 37.8 µM
GI50 (SK-MEL-2 melanoma): 12.5 µM
TGI (SK-MEL-2 melanoma): 45.3 µM
GI50 (HCT-116 colon): 1.72 µM
TGI (HCT-116 colon): > 76.6 µM
GI50 (UO-31 renal): 6.54 µM
TGI (UO-31 renal): > 61.7 µM
GI50 (KM12 colon): 0.625 µM
TGI (KM12 colon): 13.9 µM
GI50 (HOP-92 NSCLC): 8.88 µM
TGI (HOP-92 NSCLC): 69.8 µM
GI50 (SW-620 colon): 0.544 µM
TGI (SW-620 colon): 20.5 µM
GI50 (BT-549 breast): 10 µM
TGI (BT-549 breast): > 56.9 µM
GI50 (SF-268 CNS): 3.4 µM
TGI (SF-268 CNS): 20.5 µM
GI50 (CAKI-1 renal): 5.48 µM
TGI (CAKI-1 renal): > 63 µM
GI50 (IGROV1 ovarian): 3.28 µM
TGI (IGROV1 ovarian): 25.9 µM
GI50 (SK-OV-3 ovarian): 6.39 µM
TGI (SK-OV-3 ovarian): > 71.5 µM
GI50 (MDA-MB-231 breast): 3.55 µM
TGI (MDA-MB-231 breast): 33.7 µM
GI50 (MOLT-4 leukemia): 1.68 µM
TGI (MOLT-4 leukemia): > 100 µM
GI50 (HCC-2998 colon): 10.9 µM
TGI (HCC-2998 colon): 34.3 µM
GI50 (U251 CNS): 2.49 µM
TGI (U251 CNS): 20.1 µM
GI50 (RXF 393 renal): 3.43 µM
TGI (RXF 393 renal): > 27.4 µM
